According to patent US11072609B2, “Method for preparing halogenated imidazopyridine derivatives” (Bayer Aktiengesellschaft, priority 2017, dated 2021):

Experiments:
Myzus persicae [1] = assay: Myzus persicae - oral test; assay type: in vivo; details: application rate 4 ppm; after 5 days; 100% = all aphids killed
Experimental: Myzus persicae—Oral Test Solvent: 100 parts by weight of acetone To produce a suitable active ingredient formulation, 1 part by weight of active ingredient is dissolved with the stated parts by weight of solvent and made up to the desired concentration with water. 50 μl of the active ingredient formulation are transferred into microtitre plates and made up to a final volume of 200 μl with 150 μl of IPL41 insect medium (33%+15% sugar). Subsequently, the plates are sealed with parafilm, which a mixed population of green peach aphids (Myzus persicae) within a second microtitre plate is able to puncture and imbibe the solution. After 5 days, the efficacy in % is determined. 100% means that all the aphids have been killed; 0% means that no aphids have been killed.

Phaedon cochleariae = Phaedon cochleariae - spray test; assay type: in vivo; details: application rate 100 g/ha; Chinese cabbage leaf discs, larvae; after 7 days
Experimental: Phaedon cochleariae—Spray Test
To produce a suitable active ingredient formulation, 1 part by weight of active ingredient is dissolved with the specified parts by weight of solvent and made up to the desired concentration with water containing an emulsifier concentration of 1000 ppm. To produce further test concentrations, the formulation is diluted with emulsifier-containing water.
Discs of Chinese cabbage leaves (Brassica pekinensis) are sprayed with an active ingredient formularation of the desired concentration and, after drying, populated with larvae of the mustard beetle (Phaedon cochleariae).
After 7 days, the efficacy in % is determined. 100% means that all the beetle larvae have been killed; 0% means that no beetle larvae have been killed.

[2] = log P by HPLC on reversed-phase column (C 18), EEC Directive 79/831 Annex V.A8; assay type: physicochemical; details: reversed-phase C18 HPLC column; HPLC-MS, reversed-phase C 18, 55° C.; acidic or neutral range not stated
Experimental: The log P values are measured according to EEC Directive 79/831 Annex V.A8 by HPLC (high-performance liquid chromatography) on a reversed-phase column (C 18). Temperature: 55° C. The LC-MS determination in the acidic range is carried out at pH 2.7 using the mobile phases 0.1% aqueous formic acid and acetonitrile (contains 0.1% formic acid); linear gradient from 10% acetonitrile to 95% acetonitrile. The LC-MS determination in the neutral range is carried out at pH 7.8 using the mobile phases 0.001 molar aqueous ammonium bicarbonate solution and acetonitrile; linear gradient from 10% acetonitrile to 95% acetonitrile. Calibration is carried out using unbranched alkan-2-ones (having 3 to 16 carbon atoms) with known log P values (log P values determined on the basis of the retention times by linear interpolation between two successive alkanones).

Myzus persicae [3] = assay: Myzus persicae - spray test; assay type: in vivo; details: Chinese cabbage leaf discs, after 5 days
Experimental: Myzus persicae—Spray Test [table] To produce a suitable active ingredient formulation, 1 part by weight of active ingredient is dissolved with the specified parts by weight of solvent and made up to the desired concentration with water containing an emulsifier concentration of 1000 ppm. To produce further test concentrations, the formulation is diluted with emulsifier-containing water. Discs of Chinese cabbage leaves (Brassica pekinensis) infested by all stages of the green peach aphid (Myzus persicae) are sprayed with an active ingredient formulation of the desired concentration. After 5 days, the efficacy in % is determined. 100% means that all the aphids have been killed; 0% means that no aphids have been killed.

Spodoptera frugiperda = assay: Spodoptera frugiverda - spray test; assay type: in vivo; details: application rate 100 g/ha; maize leaf discs, caterpillars; after 7 days
Experimental: Spodoptera frugiverda—Spray Test [table] To produce a suitable active ingredient formulation, 1 part by weight of active ingredient is dissolved with the specified parts by weight of solvent and made up to the desired concentration with water containing an emulsifier concentration of 1000 ppm. To produce further test concentrations, the formulation is diluted with emulsifier-containing water. Leaf discs of maize (Zea mays) are sprayed with an active ingredient formulation of the desired concentration and, after drying, populated with caterpillars of the armyworm (Spodoptera frugiperda). After 7 days, the efficacy in % is determined. 100% means that all the caterpillars have been killed; 0% means that no caterpillar has been killed.

chromatographic logP [2] | Structure (SMILES) | efficacy (Myzus persicae [1]) | other results
 | CCS(=O)(=O)c1ccc(-n2cncn2)nc1-c1nc2cc(C(F)(F)F)nc(C#N)c2n1C [Compound No. 1, 2-[3-(ethylsulfonyl)-6-(1H-1,2,4-triazol-1-yl)pyridin-2-yl]-3-methyl-6-(trifluoromethyl)-3H-imidazo[4,5-c]pyridine-4-carbonitrile] | 100% | efficacy (Phaedon cochleariae): 83%
4.17 | CCSc1ccc(Cl)nc1-c1nc2cc(C(F)(F)F)nc(I)c2n1C [Example 1, 2-[6-chloro-3-(ethylsulfanyl)pyridin-2-yl]-4-iodo-3-methyl-6-(trifluoromethyl)-3H-imidazo[4,5-c]pyridine] |  | 
4.34 | CCSc1ccc(Br)nc1-c1nc2cc(C(F)(F)F)nc(I)c2n1C [Example 2, 2-[6-bromo-3-(ethylsulfanyl)pyridin-2-yl]-4-iodo-3-methyl-6-(trifluoromethyl)-3H-imidazo[4,5-c]pyridine] |  | 
3.23 | CCSc1ccc(Cl)nc1-c1nc2cc(C(F)(F)F)nc(C)c2n1C [Example 3, 2-[6-chloro-3-(ethylsulfanyl)pyridin-2-yl]-3,4-dimethyl-6-(trifluoromethyl)-3H-imidazo[4,5-c]pyridine] |  | 
3.36 | CCSc1ccc(Br)nc1-c1nc2cc(C(F)(F)F)nc(C)c2n1C [Example 4, 2-[6-bromo-3-(ethylsulfanyl)pyridin-2-yl]-3,4-dimethyl-6-(trifluoromethyl)-3H-imidazo[4,5-c]pyridine] |  | 
3.84 | CCSc1ccc(Cl)nc1-c1nc2cc(C(F)(F)F)nc(C#N)c2n1C [Example 5, 2-[6-chloro-3-(ethylsulfanyl)pyridin-2-yl]-3-methyl-6-(trifluoromethyl)-3H-imidazo[4,5-c]pyridine-4-carbonitrile] |  | 
3.87 | CCSc1ccc(Br)nc1-c1nc2cc(C(F)(F)F)nc(C#N)c2n1C [Example 6, 2-[6-bromo-3-(ethylsulfanyl)pyridin-2-yl]-3-methyl-6-(trifluoromethyl)-3H-imidazo[4,5-c]pyridine-4-carbonitrile] |  | 
4.18 | CCSc1ccc(Br)nc1-c1nc2cc(C(F)(F)F)nc(Cl)c2n1C [Example 7, 2-[6-bromo-3-(ethylsulfanyl)pyridin-2-yl]-4-chloro-3-methyl-6-(trifluoromethyl)-3H-imidazo[4,5-c]pyridine] |  | 
 | CCS(=O)(=O)c1ccc(-n2cncn2)nc1-c1nc2cc(C(F)(F)F)nc(C)c2n1C [compound 2] | 100% | efficacy (Myzus persicae [3]; application rate 20 g/ha): 90%; efficacy (Phaedon cochleariae): 83%
 | CCS(=O)(=O)c1ccc(-n2cncn2)nc1-c1nc2cc(C(F)(F)F)nc(Cl)c2n1C [compound 3] | 100% | efficacy (Myzus persicae [3]; application rate 20 g/ha): 100%; efficacy (Myzus persicae [3]; application rate 100 g/ha): 100%; efficacy (Spodoptera frugiperda): 100%
